Source: patent US20220409578A1, “FUNCTIONALIZED 1,3-BENZENE DIOLS AND THEIR METHOD OF USE FOR THE TREATMENT OF RADIATION DERMATITIS AND OTHER SKIN DISORDERS” (KANNALIFE SCIENCES, INC., priority 2019, published 2022)

Columns and labels:
[1] = test system: IL-1β; assay: IL-1β release from UV-B irradiated human epidermal keratinocytes (ELISA); assay type: cell-based; conditions: Keratinocyte, light or radiation study; UV-B 25 mJ/cm^2, human epidermal keratinocytes; read-out: IC50 of interleukin-1β inhibition
Description: Normal human epidermal keratinocytes cultures were utilized to measure the release of proinflammatory cytokines and chemokines. Primary epidermal keratinocytes from neonatal donors were used from human origin and purchased from Thermo-Fisher (Cat No. A13401). […] Cells were cultured until the second passage and then acclimated for 48 hours more before UV-B irradiation. Dosing procedures and cell groups were identified using appropriate cell culture 24-well plates. The cell culture incubator was set at 5% v/v CO2 with temperature and humidity maintained at 36-38° C. and 40-70%, respectively. The test and control substances were administered to HKGS-depleted medium in triplicates. A fixed 5 μL/well from 100× stock dose volume was administered to 500 μL of media to each cell culture well on Day 3 and pre-incubated for 6 hours and then post-UVB incubated for 18 hours. […] Media supernatants were harvested and analyzed for TNFα and IL-1β levels by ELISA method. Cytokine levels were assessed from cell culture media supernatants using BD Biosciences OptEIA™ Human TNFα (Cat. No. 555212) and IL-1β (Cat. No. 557953) and ELISA set kit and Reagent Set B (Cat. No. 550534) according the manufacture's specifications. Absorbance was measured at 450 nm using a plate reader and calculated cytokine levels were determined from a standard curve.

[2] = test system: IL-6; assay: IL-6 release, UV-A-induced photoaging in human dermal fibroblasts (ELISA); assay type: cell-based; conditions: UV-A 12.5 J/cm^2 (315-400 nm)
Description: Primary dermal fibroblasts cells of human origin were cultured in vitro using standard conditions (37° C., 95% v/v air, 5% v/v CO2). Primary dermal fibroblasts from neonatal donor were used from human origin and purchased from Thermo-Fisher (Cat No. C0045C). […] Cells were cultured until the second passage and then acclimated for 48 hours before UVA irradiation and dosing procedures conducted in 24-well plates. On Day 3, test materials were dosed to cell culture media and pre-incubated for 6 hours. Treatment media was then removed and replaced with phosphate buffer saline (PBS) without test materials and Ultraviolet-A (UV-A) was irradiated at 12.5 J/cm^2 using FS-20/T-12 bulbs (315-400 nm). […]
An Interleukin-6 assay was used to evaluate the anti-inflammatory activity of KLS-13022 formulated in ethanol and applied in vitro to cells irradiated with Ultraviolet-A (UV-A)-induced photoaging (Wlascheck et al., 1994) in human dermal fibroblasts (HDFs). […] IL-6 levels were quantified by enzyme-linked immunosorbent assay (ELISA) after inflammatory induction and incubation with test and control materials. Interleukin-6 (IL-6) levels were assessed from cell culture media supernatants using BD Biosciences OptEIA™ Human IL-6 ELISA Set kit (Cat. No. 555220). according to the manufacture's specifications. […]

[3] = test system: CXCL5; assay: CXCL5 chemokine secretion by UV-B irradiated NHEKs (ELISA); assay type: cell-based, human
Description: Normal human epidermal keratinocytes cultures were utilized to measure the release of proinflammatory cytokines and chemokines. Primary epidermal keratinocytes from neonatal donors were used from human origin and purchased from Thermo-Fisher (Cat No. A13401). […] Cells were cultured until the second passage and then acclimated for 48 hours more before UV-B irradiation. Dosing procedures and cell groups were identified using appropriate cell culture 24-well plates. The cell culture incubator was set at 5% v/v CO2 with temperature and humidity maintained at 36-38° C. and 40-70%, respectively. The test and control substances were administered to HKGS-depleted medium in triplicates. A fixed 5 μL/well from 100× stock dose volume was administered to 500 μL of media to each cell culture well on Day 3 and pre-incubated for 6 hours and then post-UVB incubated for 18 hours. […] CXCL5 levels were quantified by enzyme-linked immunosorbent assay (ELISA) after UV-B irradiation and incubation with test and control materials. CXCL5 levels were assessed from cell culture media supernatants using R&D Systems Human CXCL5/ENA-78 DuoSet ELISA kit (Cat. No. DY254-05) according to the manufacture's specifications. Absorbance was measured at 450 nm using plate reader and cytokine levels were calculated from a standard curve.

C=C(C)[C@@H]1CCC(C)=C[C@H]1c1c(O)cc(CC2CN(C(=O)OCC)C2)cc1O [KLS-13022, ethyl 3-(3,5-dihydroxy-4-((1R,6R)-3-methyl-6-(prop-1-en-2-yl)cyclohex-2-enyl)benzyl)azetidine-1-carboxylate]
IC50 [1]: 380 nM
IC50 ([2]; Fibroblast, light or radiation study, read-out: IC50 of IL-6 inhibition): 900 nM
maximum IL-6 inhibition [2]: 95%
CXCL5 inhibition [3]: 100%
IC50 ([3]; Homo sapiens, NHEK, light or radiation study, read-out: IC50 of CXCL5 inhibition): 50 nM
